# Measurements taken from PubChem BioAssay AID1996.
# Details: buffer; pH 7.4; 200.0 µM
row,Compound,solubility kinetic
1,CCOc1ncccc1C(=O)N(CC)CC(=O)NCc1ccc(F)cc1,> 53.9 µg/mL
2,CC(C)Cc1ccc(/C=C/C(=O)N2CCCCC2)cc1,11.6 µg/mL
3,COc1ccc(NC(=O)CNC(=O)C2CCCCC2)cc1,39.7 µg/mL
4,Nc1ccc([As](=O)(O)O)cc1,> 32.6 µg/mL
5,CCSc1nsc(NC(=O)Nc2cccc(OC)c2)n1,1.7 µg/mL
6,Cc1cc(Nc2cccc(Cl)c2)c2ccccc2n1,32.5 µg/mL
7,CCN=C1SC(C(=O)Nc2cccc(Cl)c2)CC(=O)N1CC (centres undefined),2.6 µg/mL
8,COc1c(Cl)cccc1-c1cn2ccc(C)cc2n1,1.4 µg/mL
9,CCC(=O)Nc1cc(-c2cc3ccccc3oc2=O)ccc1OC,11 µg/mL
10,Cc1ccc(S(=O)(=O)c2nc(-c3cccs3)oc2N2CCC(C(N)=O)CC2)cc1,> 64.7 µg/mL
11,O=C(Nc1cccc([N+](=O)[O-])c1)N1CCCc2ccccc21,34.6 µg/mL
12,O=C(CSc1ccccc1C(=O)O)Nc1ccc2c(c1)OCO2,> 49.7 µg/mL
13,CCCCn1nc(CC(=O)NCCN(CC)CC)c2ccccc2c1=O,> 53.8 µg/mL
14,Cc1ccc(CC(=O)N2CCN(C)CC2)cc1,> 34.8 µg/mL
15,Cc1ccc(NC(=O)CN(C)C(=O)C2CC(=O)N(Cc3ccccc3)C2)cc1 (centres undefined),44.7 µg/mL
16,Cl.c1cc(CNC2C3CC4CC(C3)CC2C4)ccn1 (centres undefined),33.7 µg/mL
17,O=c1sc(Nc2ccccc2)nc2ccccc12,6.5 µg/mL
18,Cc1cc(OC(=O)c2ccc(C)c(C)c2)c([N+](=O)[O-])c(=O)[nH]1,> 45.3 µg/mL
19,Cc1ccc(C)c(Nc2cc(C)nc3ccccc23)c1,> 39.4 µg/mL
20,CCCCn1c(=O)[nH]c(=O)c2c1nc(-c1cccc(OC)c1)n2C,3.1 µg/mL
21,CC(C)c1nc2cc(Cl)ccc2n(Cc2ccccc2)c1=O,0.4 µg/mL
22,O=C(N/N=C/c1ccccc1Br)C1CC1,> 40.1 µg/mL
23,C#Cc1cccc(C(=O)N2CCCC(Nc3cccc(F)c3)C2)c1 (centres undefined),39.5 µg/mL
24,O=S(=O)(NC1CC1)c1ccc(F)c(F)c1,> 35 µg/mL

row,Compound,solubility kinetic
1,CCn1c(SCC(=O)NC2CCCC2)nnc1-c1ccco1,> 48.1 µg/mL
2,O=C(NCCCCc1ccccc1)c1cc([N+](=O)[O-])cc([N+](=O)[O-])c1,9.9 µg/mL
3,CN(C)C(CNC(=O)c1cc(-c2ccco2)nc2ccccc12)c1ccccc1 (centres undefined),33.9 µg/mL
4,CCC1(CC)Cc2ccccc2-c2nc(CCl)[nH]c(=O)c21,1.2 µg/mL
5,CSc1cccc(N2CC(C(=O)N3CCN(S(=O)(=O)c4ccccc4Cl)CC3)CC2=O)c1 (centres undefined),23.2 µg/mL
6,COC(=O)c1ccc(C(=O)OC)c(NC(=S)N2CCN(C)CC2)c1,> 52.7 µg/mL
7,COC(=O)C1C(c2ccccc2)NC(=O)NC1(O)C(F)(F)Cl (centres undefined),> 50.2 µg/mL
8,c1csc(-c2nnc(COc3ncnc4sccc34)o2)c1,> 47.5 µg/mL
9,Cc1cccc(C(=O)NCCCNC(=O)c2ccco2)c1,> 42.9 µg/mL
10,CC1=C([N+](=O)[O-])C(c2ccc(Cl)cc2)NC(=O)N1C (centres undefined),30.4 µg/mL
11,Cc1occc1-c1nnc(SCC(=O)NC2CC2)n1C,> 43.9 µg/mL
12,CC(C)c1cccc(C(C)C)c1NC(=S)Nc1cccc(Cl)c1,< 0.4 µg/mL
13,COc1ccc(Cn2c(C)nc3c(c(=O)c4ccccc4n3C)c2=O)cc1,0.7 µg/mL
14,CCN1C(=O)c2cccc3c(S(=O)(=O)N(C(C)=O)c4ccc(OC(C)=O)cc4)ccc1c23,4.3 µg/mL
15,CCOC(=O)c1c(C)[nH]c(C)c1C(=O)COC(=O)/C=C/c1ccccc1[N+](=O)[O-],6 µg/mL
16,CN(Cc1cccs1)C(=O)CNC(=O)c1ccco1,> 41.7 µg/mL
17,Cc1cc(C)cc(OCCn2ccnc2)c1,29.3 µg/mL
18,Cl.Clc1ccc(CN2CCNCC2)cc1,22.6 µg/mL
19,Cc1noc(C(=O)NCC2CCCO2)c1Cl (centres undefined),> 36.7 µg/mL
20,O=C(N/N=C/c1ccccn1)c1ccncc1,> 33.9 µg/mL
21,CCOc1ccc(C(C)=O)cc1CN1C(=O)NC(C)(C2CC2)C1=O (centres undefined),41.3 µg/mL
22,O=C(NCc1ccccn1)C(=O)Nc1cccc2ccccc12,35.4 µg/mL
23,COCCN1C(=O)C(=O)/C(=C(/O)c2ccc(C)cc2)C1c1ccccn1 (centres undefined),> 52.9 µg/mL
24,Cc1cccc(NC(=S)NC(=O)C2CC2)c1,> 35.1 µg/mL

row,Compound,solubility kinetic
1,Clc1cnc(Nc2cccnc2)c(Cl)c1,33.8 µg/mL
2,CCn1cc(C(C)NC(=O)Nc2ccc3c(c2)OCO3)c(C)n1 (centres undefined),> 47.5 µg/mL
3,Cc1cc(=S)c2cccc(C)c2[nH]1,26.5 µg/mL
4,O=C(CSc1ccc(F)cc1)NC12CC3CC(CC(C3)C1)C2,1.1 µg/mL
5,Cn1cnc([N+](=O)[O-])c1C(=O)Nc1cccc([N+](=O)[O-])c1,11.2 µg/mL
6,COc1ccc(C(=O)Cn2cnc3ccccc3c2=O)c(OC)c1,41.7 µg/mL
7,COCC(=O)Nc1nc(-c2ccc(-c3ccccc3)cc2)cs1,4.4 µg/mL
8,COc1ccc(S(N)(=O)=O)cc1C(=O)OCC(=O)N1CCCC(C)C1 (centres undefined),> 55.6 µg/mL
9,COc1ccc2nc(C)c3c(c2c1)OC(C(C)(Cl)Br)C3 (centres undefined),4 µg/mL
10,CC(C)c1ccc(NC(=O)CN2C(=O)NC3(CCCCCCC3)C2=O)cc1,16.4 µg/mL
11,CSc1ncc(C(=O)Nc2ccccc2Cl)c(C)n1,39.6 µg/mL
12,Cc1ccc(O)c(CNc2cccc3cccnc23)c1,2.9 µg/mL
13,CC(NC(=O)c1ccco1)c1nc(-c2ccc(C(C)(C)C)cc2)no1 (centres undefined),0.9 µg/mL
14,CCn1c(O)c(C=Nc2ccccc2)sc1=O,0.5 µg/mL
15,O=[N+]([O-])c1ccc(Cc2ccccn2)c([N+](=O)[O-])c1,33.6 µg/mL
16,C[C@H](N)c1nnc(SCC(N)=O)o1.Cl,> 35.8 µg/mL
17,CCCNC(=O)c1cnc(-c2ccccc2)nc1-c1ccccc1,1 µg/mL
18,Nc1cccc(CN2CCCC2)c1,> 26.4 µg/mL
19,CCOC(=O)Cc1csc(NC(=O)Cc2ccc(C)cc2)n1,45.2 µg/mL
20,COc1ccc2nc(N(CCN(C)C)C(=O)c3ccc4ccccc4c3)sc2c1.Cl,24.9 µg/mL
21,Cc1cccc(C2NC(c3cccc(C)c3)C(C)C(=O)C2C)c1 (centres undefined),0.8 µg/mL
22,Clc1cc(Br)ccc1NCc1cccnc1,24.7 µg/mL
23,S=C(NC1CCCCC1)N1CCn2cccc2C1c1cccnc1 (centres undefined),> 51.1 µg/mL
24,CC1(C(=O)N2CCN(C(=O)c3ccco3)CC2)CC1(Br)Br (centres undefined),> 63 µg/mL

row,Compound,solubility kinetic
1,COc1ccccc1Sc1nc(-c2ccccc2)ncc1OC,1.1 µg/mL
2,Cc1ccc2c(C)c(C(=O)NCCN3CCOC3=O)oc2c1C,> 47.5 µg/mL
3,COc1ccc(NC(C)=O)cc1CNC(=O)CN1CCOCC1,> 48.2 µg/mL
4,CC(C)=CC(=O)Nc1ccc(S(=O)(=O)Nc2ccccn2)cc1,46.2 µg/mL
5,COC(=O)c1ccccc1NC(=O)CNC(=O)c1ccc(OC)cc1,45 µg/mL
6,CCOc1ccc2nc(SCC(=O)NCc3ccc(S(N)(=O)=O)cc3)[nH]c2c1,35.2 µg/mL
7,Cc1ccccc1C(=O)NCC(=O)NC1CC1,> 34.8 µg/mL
8,COC(=O)c1sccc1NC(=O)c1ccccc1F,1 µg/mL
9,CC1(C)CCN2CCC(C)(C)c3c(O)ccc1c32.CS(=O)(=O)O,19.6 µg/mL
10,O=C(NCC(=O)N1CC=C(c2ccccc2)CC1)c1ccc(F)cc1,9 µg/mL
11,CC(=O)N/C(=C\c1ccc(C)o1)C(=O)NCc1ccccc1,> 44.8 µg/mL
12,CCOc1cc(N2CCOCC2)c(OCC)cc1NC(=O)c1cnccn1,11.9 µg/mL
13,COn1c(=O)c(-c2ccc(C)cc2)[n+]([O-])c2ccccc21,> 42.3 µg/mL
14,Cc1ccc(SCC(=O)Nc2ccc3c(c2)C(=O)N(C)C3=O)cc1,3.2 µg/mL
15,CNc1nc(-c2c(C)[nH]c3ccc(OC)cc23)cs1,31.8 µg/mL
16,Cc1ccc(N2C(=O)CC(C)(C)CC2=O)cc1Cl,12.5 µg/mL
17,O=C(NCCNC(=O)c1cc(Cl)ccc1Cl)c1cnccn1,> 50.9 µg/mL
18,CC(C)(C)/C(O)=C/c1nc2ccccc2oc1=O,36.8 µg/mL
19,COc1ccccc1NC(=O)CCNC(=O)c1ccc(C)cc1,> 46.9 µg/mL
20,CCC12CN3CCN(CC(C3)/C1=N\NC(=O)c1ccc(Cl)cc1)C2,> 52 µg/mL
21,CNC(=O)C1=C(C)Nc2nc3ccccc3n2C1c1ccc(F)cc1 (centres undefined),48.9 µg/mL
22,CCCN1C(=O)c2ccc(C(=O)Nc3cc(C)ccc3O)cc2C1=O,0.9 µg/mL
23,COc1ccccc1OCCNC(=O)C1CCCCC1,33.8 µg/mL
24,CC(C)c1ccc(C(=O)CN2C(=O)NC3(CCc4ccccc43)C2=O)cc1 (centres undefined),7.1 µg/mL

row,Compound,solubility kinetic
1,Cc1oc(C)c(S(=O)(=O)NCc2cccs2)c1C(=O)O,> 47.3 µg/mL
2,CC(C)c1ccc(CN2C(=O)c3ccccc3S2(=O)=O)cc1,1.2 µg/mL
3,COc1ccc2oc(=O)c(C(=O)NCc3ccco3)cc2c1,4.8 µg/mL
4,CSc1ncccc1C(=O)Nc1cccc(S(=O)(=O)N2CCOCC2)c1,> 59 µg/mL
5,CCCn1c(SCCC(=O)O)nc2ccccc21,> 39.7 µg/mL
6,CCCC(=O)Nc1ccc2c(c1)nc(CCN1CCCCC1)n2C,> 49.3 µg/mL
7,O=C(OCc1ccccc1)N1CCc2ccccc21,0.9 µg/mL
8,COCCN1CCn2c(nc3cc(NS(C)(=O)=O)ccc32)C1,> 48.7 µg/mL
9,CC(=O)Nc1ccccc1Oc1ccccc1,> 34.1 µg/mL
10,COc1ccc(NC(=O)CN2C(=O)NC(C)(c3ccc4c(c3)OCO4)C2=O)cc1S(N)(=O)=O (centres undefined),66.9 µg/mL
11,CCOC(=O)C1CCN(C(=O)/C(=C/c2ccccc2)NC(=O)c2ccccc2)CC1,> 61 µg/mL
12,Cc1cc(=O)n2c3ccccc3n(C)c2n1,> 32 µg/mL
13,CCCN(CCC)C(=O)Nc1cc(Cl)ccc1OC,31.9 µg/mL
14,O=C(CN1CCCCCC1)Nc1cccc([N+](=O)[O-])c1,> 41.6 µg/mL
15,CSc1ccccc1NC(=O)Nc1cccc(Cl)c1C,0.5 µg/mL
16,O=C(COC(=O)c1ccc(F)c(S(=O)(=O)N2CCOCC2)c1)c1ccccc1,6.3 µg/mL
17,N/C(COc1cccc(Cl)c1)=N\O,20.1 µg/mL
18,COc1ccc(C2c3ccc(O)cc3Oc3ncn(CCCO)c(=N)c32)cc1 (centres undefined),> 56.9 µg/mL
19,Cc1ccc(N2C(=O)C(CN3CCCCC3)C2c2ccccc2)cc1 (centres undefined),27 µg/mL
20,O=C(N[C@@H]1C[C@H]2CC[C@@H]1C2)c1ccco1,29.8 µg/mL
21,COCCCNc1ccc([N+](=O)[O-])cc1C(=O)Nc1cccc(C)n1,2.9 µg/mL
22,CSc1ccc(CNC(=O)c2c(C)noc2C)s1,39.8 µg/mL
23,COc1ccccc1CNC(=O)CCCc1cn(C)c2ccccc12,8.2 µg/mL
